# Assay results as given in patent publication US11291674B2 (CALITHERA BIOSCIENCES, INC., priority 2016, dated 2022).
# System: cancer patient granulocyte-mediated suppression of T cell proliferation
# Assay: T cell proliferation in media conditioned by granulocytes of a head and neck cancer patient
# Type: cell-based, human
# Method: T cell/myeloid cell co-culture assays. […] Granulocytes were incubated for 48 h at 37° C., during which time they spontaneously activate as determined by surface expression of CD66b and scatter properties. T cells isolated from the same donor using a pan-T cell isolation kit (Stemcell Technologies) were loaded with CFSE and plated with immobilized anti-CD3 and soluble anti-CD28 in the presence of the aged granulocytes. The cells were co-cultured at several ratios of granulocytes to T cells as indicated or at a fixed ratio of 4 T cells to 1 granulocyte. Co-cultures were incubated for 3-4 days, at which time media were analyzed for L-arginine and L-ornithine by mass spectrometry and T cell proliferation was determined by flow cytometry. Granulocytic MDSC (G-MDSC) or granulocytes from cancer patients were isolated from whole blood purchased from Conversant Biologics. G-MDSCs were purified from the PBMC layer of a Ficoll gradient by positive selection for CD66b^+ cells. Granulocytes were purified from the RBC layer of a Ficoll gradient using Hetasep (Stemcell Technologies). G-MDSC or granulocytes were incubated in co-culture media containing 100 μM L-arginine for 48 h, at which time the cells were removed and the G-MDSC- or granulocyte-conditioned media were used for incubating healthy donor CFSE-loaded T cells on immobilized anti-CD3/soluble anti-CD28 for 3-4 days. Cytokines were quantified in the media from T cell co-culture assays using the Cytometric Bead Array kit according to the manufacturer's instructions (BD Biosciences).
smiles,measurement,setting,value
C[C@H](N)C(=O)N1C[C@H](CCCB(O)O)[C@](N)(C(=O)O)C1 [arginase inhibitor],Secretion of interferon-γ and granzyme-B into the media,T cells in cancer patient granulocyte-conditioned media,restored secretion
same,Arginine depletion of the media,granulocytes of a head and neck cancer patient,arginine depletion was blocked
same,"T cell proliferation restored, of control levels",media conditioned by granulocytes of a head and neck cancer patient,79%
